Data published in US11013235B2 (priority 2015, dated 2021).
Like-named read-outs stand apart in the source and are kept apart here.

Tests used:
Format in all cases: in vivo
[1] = system: Candidatus 'Liberibacter asiaticus'; settings: spraying every 15 days, 12 months after treatment, Citrus sinensis with HLB
Phytophthora parasitica = assay: Control of Phytophthora parasitica disease in tobacco (Pp-Nt); settings: 1 μM spraying every 24 hours for one week, water control 91
Rhizoctonia solani [2] = assay: Control of Rhizoctonia solani disease in tobacco (Rs-Nt); settings: 1 μM spraying every 24 hours for one week, water control 87
Nocardia sp = assay: Control of Nocardia sp disease in tobacco (N-Nt); settings: 1 μM spraying every 24 hours for one week, water control 58
In short: (§1)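 Treatment: spraying at 1 μM every 24 h for 1 week after pathogen inoculation, versus water. Scoring differed by pathogen: Botrytis by lesion diameter, Alternaria by fraction of leaves with symptoms, Nocardia by plant mortality.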

Rhizoctonia solani [3] = assay: Control of Rhizoctonia solani disease in tomato (Rs-SI); settings: 1 μM spraying every 24 hours for one week, water control 96
Alternaria solani = assay: Control of Alternaria solani disease in tomato (As-SI); settings: 1 μM spraying every 24 hours for one week, water control 68
In short: as §1

Botrytis cinerea [4] = assay: Control of Botrytis cinerea disease in Arabidopsis (Bc-At); settings: 1 μM spraying every 24 hours for one week, water control 8.7
In short: as §1

Botrytis cinerea [5] = assay: Control of Botrytis cinerea disease in tobacco (Bc-Nt); settings: 1 μM spraying every 24 hours for one week, water control 6.7
In short: as §1

Botrytis cinerea [6] = assay: Control of Botrytis cinerea disease in tomato (Bc-SI); settings: 1 μM spraying every 24 hours for one week, water control 7.4
In short: as §1

Radopholus similis = assay: Nematode control, nodules per plant: Radopholus similis; settings: 1 μM foliar application every 5 days, evaluation 35 days after, control 45
In short: (§2)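 Foliar application at 1 μM; spraying every 5 days; n = 10 plants/treatment; nodules/plant scored day 35.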

Meloidogyne incognita = assay: Nematode control, nodules per plant: Meloidogyne incognita; settings: 1 μM foliar application every 5 days, evaluation 35 days after, control 34
In short: as §2

Pratylenchus coffeae = assay: Nematode control, nodules per plant: Pratylenchus coffeae; settings: 1 μM foliar application every 5 days, evaluation 35 days after, control 42
In short: as §2

Structure (SMILES)	Titers of the bacterium ([1]; 0.001 μM) [copies per reaction]	Titers of the bacterium ([1]; 0.01 μM) [copies per reaction]	Titers of the bacterium ([1]; 1 μM) [copies per reaction]	Titers of the bacterium ([1]; 5 μM) [copies per reaction]	Titers of the bacterium ([1]; 10 μM) [copies per reaction]	Pp-Nt: percentage of mortality (Phytophthora parasitica) [%]	Rs-Nt: percentage of mortality (Rhizoctonia solani [2]) [%]	N-Nt: percentage of mortality (Nocardia sp) [%]	Rs-SI: percentage of mortality (Rhizoctonia solani [3]) [%]	As-SI: percentage of leaves with the disease symptoms (Alternaria solani) [%]	Bc-At: mean of the diameter of the lesion (Botrytis cinerea [4]) [mm]	Bc-Nt: mean of the diameter of the lesion (Botrytis cinerea [5]) [mm]	Bc-SI: mean of the diameter of the lesion (Botrytis cinerea [6]) [mm]	Rs: number of nodules per plant (Radopholus similis)	Mi: number of nodules per plant (Meloidogyne incognita)	Pc: number of nodules per plant (Pratylenchus coffeae)
Cc1c(CCC(=O)NCC(O)CO)c(=O)oc2cc3occ(C4CCCCC4)c3cc12 (stereo not drawn) [IJ, 3-{6-cyclohexyl-4-methyl-2-oxo-2H-furo[3,2-g]chromen-3-yl}-N-(2,3-dihydroxypropyl)propanamide]	456	0	18	46	5840	1	4	2	2	3	1.5	1.5	2.5	18	4	24
Cc1c(CCC(=O)NCC(O)CO)c(=O)oc2cc3occ(C4CCCC4)c3cc12 (stereo not drawn) [IK, 3-{6-cyclopentyl-4-methyl-2-oxo-2H-furo[3,2-g]chromen-3-yl}-N-(2,3-dihydroxypropyl)propanamide]	435	0	0	45	6521	0	0	1	2	8	2.4	1.5	0.8	0	0	15
Cc1c(CCC(=O)NCC(O)CO)c(=O)oc2cc3occ(-c4ccc5ccccc5c4)c3cc12 (stereo not drawn) [IL, N-(2,3-dihydroxypropyl)-3-[4-methyl-6-(naphthalen-2-yl)-2-oxo-2H-furo[3,2-g]chromen-3-yl]propanamide]	578	0	0	78	3574	0	0	0	0	7	0.7	0.9	1.2	0	0	0
Cc1c(CCC(=O)NCC(O)CO)c(=O)oc2cc3occc3cc12 (stereo not drawn) [IM, N-(2,3-dihydroxypropyl)-3-{4-methyl-2-oxo-2H-furo[3,2-g]chromen-3-yl}propanamide]	635	0	0	65	3541	0	0	0	1	5	1.2	0.3	0.8	0	0	0
Cc1c(CCC(=O)NCC(O)CO)c(=O)oc2cc3occ(-n4cccc4)c3cc12 (stereo not drawn) [IN, N-(2,3-dihydroxypropyl)-3-[4-methyl-2-oxo-6-(1H-pyrrol-1-yl)-2H-furo[3,2-g]chromen-3-yl]propanamide]	524	0	0	54	2368	3	0	0	1	7	1.1	2.0	1.6	3	0	0
CC1CCN(C(=O)c2ccc(OC3CCN(CC(O)CO)CC3)cc2)C1 (stereo not drawn) [IVA, 3-(4-{4-[(3-methylpyrrolidin-1-yl)carbonyl]phenoxy}piperidin-1-yl)propane-1,2-diol]	598	1	5	98	6521	0	0	0	1	5	2.4	1.5	0.8	0	0	0
CC1CCN(C(=O)c2ccc(OC3CCN(CC(O)C(C)O)CC3)cc2)C1 (stereo not drawn) [IVB, 1-(4-{4-[(3-methylpyrrolidin-1-yl)carbonyl]phenoxy}piperidin-1-yl)butane-2,3-diol]	432	8	4	43	3574	3	0	0	1	7	0.7	0.9	1.2	3	0	0
O=C(c1ccc(OC2CCN(CC(O)CO)CC2)cc1)N1CCC(c2ccccc2)C1 (stereo not drawn) [IVC, 3-(4-{4-[(3-phenylpyrrolidin-1-yl)carbonyl]phenoxy}piperidin-1-yl)propane-1,2-diol]	123	4	0	23	3541	1	2	1	3	1	1.2	0.3	0.8	14	2	13
CC(O)C(O)CN1CCC(Oc2ccc(C(=O)N3CCC(c4ccccc4)C3)cc2)CC1 (stereo not drawn) [IVD, 1-(4-{4-[(3-phenylpyrrolidin-1-yl)carbonyl]phenoxy}piperidin-1-yl)butane-2,3-diol]	587	0	0	87	2368	2	3	1	2	2	1.1	2.0	1.6	2	3	15
